pKi: −log10 of the molar value.
What was measured:
Type in all cases: cell-based
Caspase-1 = target: T1, Caspase-1 (Homo sapiens, UniProt P29466); assay: Inhibition of IL-1 beta converting enzyme (ICE) in human blood monocytes expressed as Ki
T1 sequence (P29466 whole entry): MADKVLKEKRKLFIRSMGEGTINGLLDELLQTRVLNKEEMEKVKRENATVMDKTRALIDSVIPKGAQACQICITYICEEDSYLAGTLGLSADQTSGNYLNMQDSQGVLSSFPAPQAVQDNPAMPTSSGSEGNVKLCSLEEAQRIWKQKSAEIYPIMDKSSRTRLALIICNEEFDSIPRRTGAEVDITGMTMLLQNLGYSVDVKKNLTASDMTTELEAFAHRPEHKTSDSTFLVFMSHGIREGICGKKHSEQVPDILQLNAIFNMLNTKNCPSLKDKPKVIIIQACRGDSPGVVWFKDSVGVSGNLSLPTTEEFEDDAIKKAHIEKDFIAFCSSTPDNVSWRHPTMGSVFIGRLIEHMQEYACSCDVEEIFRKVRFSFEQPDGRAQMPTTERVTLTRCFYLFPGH

Caspase-1 (Homo sapiens) [1] = target: T2, Caspase-1 (Homo sapiens) (UniProt P29466); assay: Inhibition of IL-1 beta converting enzyme (ICE) in human blood monocytes expressed as Kon
T2 sequence (whole entry): T1 sequence (P29466 whole entry)

Caspase-1 (Homo sapiens) [2] = target: T2, Caspase-1 (Homo sapiens); assay: Compound was tested for inhibition of IL-1 beta converting enzyme (ICE) in human blood monocytes expressed as Ki

| SMILES | pKi (Caspase-1) | k on (Caspase-1 (Homo sapiens) [1]) [M⁻¹ s⁻¹] | k on (Caspase-1 (Homo sapiens) [2]) [M⁻¹ s⁻¹] |
| --- | --- | --- | --- |
| C=CCOC(=O)NC(CC(=O)O)C(=O)COc1ccc2ccccc2c1C(N)=O (centres undefined) | < 4.74 |  |  |
| C=CCOC(=O)N[C@@H](CC(=O)O)C(=O)CCc1cc2ccccc2cc1-c1ncc[nH]1 | < 4.00 |  |  |
| C=CCOC(=O)NC(CC(=O)O)C(=O)COc1cc2ccccc2cc1C#N (centres undefined) |  | 4500 |  |
| C=CCOC(=O)NC(CC(=O)O)C(=O)COc1cc2ccccc2cc1C(=O)N(C)C (centres undefined) | < 4.55 |  |  |
| C=CCOC(=O)NC(CC(=O)O)C(=O)COc1cc2ccccc2cc1C(=O)Nc1ccccc1 (centres undefined) |  | 4100 |  |
| C=CCOC(=O)NC(CC(=O)O)C(=O)COc1c(C(N)=O)ccc2ccccc12 (centres undefined) | < 4.66 |  |  |
| C=CCOC(=O)NC(CC(=O)O)C(=O)COc1ccc(-c2ccccc2)cc1C(N)=O (centres undefined) |  |  | 3400 |

The remaining compounds from weak to strong by pKi (Caspase-1), led by results:

| pKi (Caspase-1) | k on (Caspase-1 (Homo sapiens) [1]) [M⁻¹ s⁻¹] | k on (Caspase-1 (Homo sapiens) [2]) [M⁻¹ s⁻¹] | SMILES |
| --- | --- | --- | --- |
| 5.31 | 1.1 |  | CC(C)[C@H](NC(=O)OCc1ccccc1)C(=O)N[C@@H](C)C(=O)N[C@@H](CC(=O)O)C(=O)COc1ccccc1 |
| 5.40 |  |  | C=CCOC(=O)NC(CC(=O)O)C(=O)COc1ccc2ccccc2c1 (centres undefined) |
| 5.42 |  |  | C=CCOC(=O)NC(CC(=O)O)C(=O)COc1ccccc1C(N)=O (centres undefined) |
| 5.57 |  |  | C=CCOC(=O)NC(CC(=O)O)C(=O)COc1ccccc1 (centres undefined) |
| 5.70 |  |  | C=CCOC(=O)NC(CC(=O)O)C(=O)COc1cc(-c2ccccc2)ccc1C(N)=O (centres undefined) |
| 5.77 | 430000 |  | CC(C)[C@H](NC(=O)OCc1ccccc1)C(=O)N[C@@H](C)C(=O)N[C@@H](CC(=O)O)C(=O)COc1cc2ccccc2cc1C(N)=O |
| 6.49 | 5600 |  | C=CCOC(=O)NC(CC(=O)O)C(=O)COc1cc2ccccc2cc1C(N)=O (centres undefined) |
| 7.05 | 12000 |  | C=CCOC(=O)N[C@@H](CC(=O)O)C(=O)COc1cc2ccccc2cc1-c1ncc[nH]1 |

Reference: ChEMBL document CHEMBL1128759, “Inhibition of interleukin-1 converting enzyme by N-acyl-aspartyl aryloxymethyl ketones” (Bioorg Med Chem Lett, 1995)
